From PMC8626469, “Helicobacter pylori FabX contains a [4Fe-4S] cluster essential for unsaturated fatty acid synthesis” (Nature Communications, 2021)

Target: T1, FabX (Helicobacter pylori, UniProt A0A0B2E3F3)
T1 construct: gene C2842_03950; full length, 363 residues; expressed in E. coli BL21(DE3) Rosetta; monomer in the asymmetric unit; holds FMN and a [4Fe-4S] cluster
T1 sequence (A0A0B2E3F3 1-363): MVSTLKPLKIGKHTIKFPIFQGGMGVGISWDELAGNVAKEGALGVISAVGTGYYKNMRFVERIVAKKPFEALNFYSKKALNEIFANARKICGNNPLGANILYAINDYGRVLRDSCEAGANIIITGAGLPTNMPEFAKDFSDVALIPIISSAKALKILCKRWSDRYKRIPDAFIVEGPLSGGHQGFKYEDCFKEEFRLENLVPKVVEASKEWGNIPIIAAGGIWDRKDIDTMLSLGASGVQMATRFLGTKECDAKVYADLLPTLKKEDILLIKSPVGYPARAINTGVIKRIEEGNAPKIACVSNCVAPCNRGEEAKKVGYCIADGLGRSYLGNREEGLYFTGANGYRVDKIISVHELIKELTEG
Test: X-ray crystal structure, […] Å
Format: binding
Details: noncovalent in TIM-barrel core; also present in complexes with holo-ACP and octanoyl-ACP

For `Cc1cc2nc3c(=O)[nH]c(=O)nc-3n(C[C@H](O)[C@H](O)[C@H](O)COP(=O)(O)O)c2cc1C` [FMN], the “X-ray crystal structure, 1.7 Å” value was “a FMN molecule is noncovalently bound inside the core”.
